Results reported in patent US20230278972A1, “SUBSTITUTED HALOALKYL SULFONANILIDE HERBICIDES” (FMC Corporation, priority 2020, published 2023).

Columns and labels:
Assay type in all cases: in vivo
[1] = test system: goosegrass (Eleusine indica); test: Test A1 postemergence, goosegrass; settings: 0 to 100 scale (0 no effect, 100 complete control); for Goosegrass plant response rating: 31 g ai/ha, postemergence; for Plant response rating, Goosegrass: Postemergence, 125 g ai/ha, 10 days
In short: (§1)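 Pre: seeds in loam/sand blend, directed soil spray. Post: potted plants, same soil, 2–10 cm, 1–2 leaf stage. Chemicals in non-phytotoxic solvent + surfactant for both.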

corn (Zea mays) = test: Test A1 preemergence, corn
In short: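 Postemergence species (ragweed, Palmer pigweed, wild oat) were sprayed at one- to two-leaf stage, 2 to 10 cm tall. Corn was treated preemergence by directed soil spray. Both used a loam soil/sand blend and compounds in a non-phytotoxic solvent mixture with surfactant.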

kochia (Bassia scoparia) = test: Test A1 preemergence, kochia
In short: as §1

[2] = test system: barnyardgrass (Echinochloa crus-galli); test: Test B1 flooded paddy test, barnyardgrass; settings: 250 g ai/ha, Flood, applied to paddy water, 2-leaf stage, visually evaluated after 10 to 14 days
Source text: A dash (-) response means no test result.

soybean (Glycine max) = test: Test A1 preemergence, soybean
In short: as §1

[3] = test system: Ryegrass, Italian (Italian ryegrass, Lolium multiflorum); test: Test A1 preemergence, Ryegrass, Italian
In short: as §1

[4] = test system: Foxtail, Giant (giant foxtail, Setaria faberi); test: Test A1 postemergence, Foxtail, Giant; settings: 0 to 100 scale (0 no effect, 100 complete control); for Foxtail, Giant plant response rating: 31 g ai/ha, postemergence; for Plant response rating, Foxtail, Giant: Postemergence, 125 g ai/ha, 10 days
In short: as §1

[5] = 31 g ai/ha, 0 to 100 scale (0 no effect, 100 complete control)
[6] = 125 g ai/ha, 0 to 100 scale, 0 no effect, 100 complete control
[7] = 125 g ai/ha, 0 to 100 scale (0 no effect, 100 complete control)

| Compound | Goosegrass plant response rating [1] | Plant response rating, Goosegrass [1] | Plant response rating, Corn (corn (Zea mays); [5]) | Plant response rating, Corn (corn (Zea mays); [6]) | Plant response rating, Kochia (kochia (Bassia scoparia); [5]) | Plant response rating, Kochia (kochia (Bassia scoparia); [6]) | Plant response rating, Barnyardgrass (0 to 100 scale, 0 is no effect, 100 is complete control) [2] | Plant response rating, Soybean (soybean (Glycine max); [5]) | Plant response rating, Soybean (soybean (Glycine max); [6]) | Plant response rating, Ryegrass, Italian [3, 5] | Plant response rating, Ryegrass, Italian [3, 6] | Foxtail, Giant plant response rating [4] | Plant response rating, Foxtail, Giant [4] | Plant response rating, Kochia (kochia (Bassia scoparia); [7]) | Plant response rating, Soybean (soybean (Glycine max); [7]) | Plant response rating, Ryegrass, Italian [3, 7] |
| --- | --- | --- | --- | --- | --- | --- | --- | --- | --- | --- | --- | --- | --- | --- | --- | --- |
| Cc1cc(C)c(N2CCC3(CCC(C(F)(F)F)CC3)C2=O)cc1NS(=O)(=O)C(F)(F)F (stereo not drawn) [Compound 400] | 10 | 80 | 0 | 20 | 0 | 20 | 20 | 50 | 50 | 60 | 90 | 0 | 0 |  |  |  |
| Cc1cc(C)c(N(COC(=O)C(C)(C)C)S(=O)(=O)C(F)(F)F)cc1N1CCC2(CCC(C)CC2)C1=O (stereo not drawn) [Compound 401] | 0 | 90 | 0 | 20 | 0 | 0 | 98 | 0 | 0 | 0 | 30 | 0 | 60 |  |  |  |
| Cc1cc(C)c(N2CCC3(CCC(C)CC3)C2=O)cc1NS(=O)(=O)C(F)(F)F (stereo not drawn) [Compound 402] | 20 | 70 | 0 | 80 | 0 | 30 | 0 | 10 | 80 | 90 | 100 | 0 | 20 |  |  |  |
| Cc1cc(C)c(N(COC(=O)C(C)(C)C)S(=O)(=O)C(F)(F)F)cc1N1CCC2(CCC(C(F)(F)F)CC2)C1=O (stereo not drawn) [Compound 403] | 0 | 50 | 0 | 10 | 0 | 0 | 0 | 0 | 0 | 30 | 30 | 0 | 0 |  |  |  |
| Cc1cc(C)c(N2Cc3cccc(C)c3C2=O)cc1NS(=O)(=O)Cl [Compound 408] | 90 | 90 | 40 | 90 | 0 |  | 98 |  |  |  |  | 90 | 90 | 70 | 50 | 100 |
| COc1cccc2c1C(=O)N(c1cc(N(COC(=O)C(C)(C)C)S(=O)(=O)Cl)c(C)cc1C)C2 [Compound 413] | 0 | 0 | 0 | 10 | 70 |  | 40 |  |  |  |  | 0 | 10 | 90 | 50 | 20 |
| CCOc1cccc2c1C(=O)N(c1cc(N(COC(=O)C(C)(C)C)S(=O)(=O)Cl)c(C)cc1C)C2 [Compound 414] | 0 | 0 | 0 | 10 | 20 |  | 0 |  |  |  |  | 0 | 0 | 80 | 0 | 30 |
| Cc1cc(C)c(N2Cc3cccc(Br)c3C2=O)cc1NS(=O)(=O)Cl [Compound 415] | 70 | 90 | 0 | 80 | 10 |  | 85 |  |  |  |  | 0 | 30 | 60 | 0 | 70 |
